Measured values taken from patent publication US3968204A, “Antibiotic A-2315” (priority 1975, dated 1976).
Values after ≈ are worked out from the molar mass of the structure shown.

What was measured:
Erwinia amylovora = assay: Agar-dilution MIC; type: cell-based; conditions: Agar-Dilution Method
Veillonella alcalescens = assay: MIC, anaerobic bacteria; type: cell-based; conditions: Veillonella parvula
Streptococcus pyogenes = assay: Protection of mice against experimental bacterial infection; type: in vivo; conditions: sc, subcutaneous, two doses
Description: When two doses each of A-2315 factors were administered to mice in illustrative infections, the ED50 values [effective dose in mg/kg to protect 50 percent of the test aninals; see Warren Wick, et al., J. Bacteriol.

[1] = test system: Staphylococcus aureus 3055; assay: Disc-plate MIC; conditions: Disc-Plate Method; benzylpenicillin-susceptible
Bacillus subtilis = assay: Disc-plate MIC; conditions: Disc-Plate Method
Proteus sp. = assay: Disc-plate MIC; conditions: Disc-Plate Method

CC1=CC(O)CC(O)Cc2nc(co2)C(=O)NC(C)C(=O)OC(C(C)C)C(C)C=CC(=O)NCC=C1 (stereo not shown) [Factor A]
MIC (Erwinia amylovora): 50 µg/mL (≈ 99.3 µM)
MIC (Veillonella alcalescens): 16 µg/mL (≈ 31.8 µM)
ED50 (Streptococcus pyogenes; Test I, challenge 10,000 × LD50 (ip)): 83 mg/kg
ED50 (Streptococcus pyogenes; Test II): 27.4 mg/kg
MIC [1]: 0.025 μg/disc
MIC (Bacillus subtilis): 50. μg/disc
MIC (Proteus sp.): 100. μg/disc
